Reference: US8772319B2 (priority 2004, dated 2014)
Several values for one entry are separate records, joined by “and”; a condition that tells them apart may be missing. Equal values may be shown once. Read-outs that look alike come from different tables or passages of the source.

Columns and labels:
5-HT1A receptor = biological target: T1, 5-HT1A receptor (Homo sapiens, UniProt P08908); assay: 5-HT1A receptor binding, HA7 cells, [3H]8-OH-DPAT
T1 construct: expressed in transfected cells; host or cells: HA7 cells
T1 sequence (P08908 1-422): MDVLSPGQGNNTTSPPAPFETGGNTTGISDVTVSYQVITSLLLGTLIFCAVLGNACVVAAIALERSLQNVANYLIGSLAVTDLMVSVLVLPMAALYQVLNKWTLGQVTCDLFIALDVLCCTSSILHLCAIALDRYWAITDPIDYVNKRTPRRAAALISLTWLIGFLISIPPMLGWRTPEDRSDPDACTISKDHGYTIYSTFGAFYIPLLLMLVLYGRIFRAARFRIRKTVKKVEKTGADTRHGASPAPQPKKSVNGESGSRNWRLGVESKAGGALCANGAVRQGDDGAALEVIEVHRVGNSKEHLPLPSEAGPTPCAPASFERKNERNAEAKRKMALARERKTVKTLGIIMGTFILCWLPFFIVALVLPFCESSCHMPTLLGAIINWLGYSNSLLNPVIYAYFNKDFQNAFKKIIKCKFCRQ

[1] = biological target: T2, human dopamine transporter (hDAT) (Homo sapiens, UniProt Q01959); assay: cell-based; conditions: for IC50: Reuptake Inhibition [3H]DA IC50, Table 6; for Discrimination Ratios (DR) [3H]DA reuptake/DAT binding: Table 6
D3 receptor [2] = biological target: T3, D3 receptor (Homo sapiens, UniProt P35462); assay: Inhibition of quinpirole-stimulated mitogenesis ([3H]thymidine incorporation), CHOp-D3 cells; type: cell-based
T3 construct: expressed in transfected cells; host or cells: CHOp- cells (CHOp-D3)

[3] = biological target: T4, human serotonin transporter (hSERT) (Homo sapiens, UniProt P31645); assay: biochemical; conditions: Table 5, read-out: SERT binding affinity Ki
[4] = biological target: T4, human serotonin transporter (hSERT); assay: cell-based; conditions: Reuptake Inhibition [3H]5-HT IC50, Table 6
male Swiss-Webster mice [5] = assay: Locomotor activity, compound alone, 1-h session; type: in vivo, mouse
Procedure: (§1) 3. Locomotor Activity. […] Panels of infrared beams (16 beams) and corresponding photodetectors were located in the horizontal direction along the sides of each activity chamber. […] Just prior to placement in the apparatus, all mice received a saline injection IP. In all studies, horizontal activity (interruption of 1 photocell beam) was measured for 1-h within 10-min periods. Testing was conducted with one mouse per activity chamber. […] Plot the mean (±SEM) maximal stimulant activity (total counts in the 30 min period divided by 3) vs dose. Perform a log10 transformation of the 30 min period average counts for individual subjects to homogenize variances for subsequent analyses. […] Fit the 30 min period average counts across subjects to a function of log10 dose using least-squares curve-fitting analyses (i.e. TableCurve software from Jandel). Estimate the maximum effect from the resultant dose-response curve. […] Determine the ED50 (dose that produces ½ maximal stimulant activity) from a linear regression analysis of the ascending portion (up to the dose that produces a maximal effect) of the curve. […] Plot the mean (±SEM) activity (total counts in the 30 min period divided by 3) vs dose. Perform a log10 transformation of the 30 min period average counts for individual subjects to homogenize variances for subsequent analyses. Conduct an ANOVA and contrast (specified a priori) each dose of the test compound to the vehicle to determine significant (p<0.05) dose effects. Conduct a linear least-squares regression analysis; regress the min period average counts across subjects over the descending portion of the curve against the log10 dose of the test compound. […] Perform a log10 transformation of the 30 min period average counts for individual subjects to homogenize variances for subsequent analyses. […] Conduct a linear least-squares regression analysis; regress the 30 min period average counts across subjects over the descending portion of the curve against the log10 dose of the test compound. […] Locomotor Activity 8-hour time course/dose response study. […] A panel of infrared beams (16 beams) and corresponding photodetectors were located in the horizontal direction along the sides of each activity chamber. A 7.5-W incandescent light above each chamber provided dim illumination. Fans provided an 80-dB ambient noise level within the chamber. […] In all studies, horizontal activity (interruption of photocell beams) was measured for 8-h within 10-min periods, beginning at 0800 hrs (2 hours after lights on). Testing was conducted with one mouse per activity chamber. Compound alone study.

D2 receptor [6] = biological target: T5, D2 receptor (Homo sapiens, UniProt P14416); assay: D2 receptor binding, CHOp- cells, [3H]YM-09151-2
T5 construct: expressed in transfected cells; host or cells: CHOp- cells (CHOp-D2)

5-HT2A receptor = biological target: T6, 5-HT2A receptor (Rattus norvegicus, UniProt P14842); assay: 5-HT2A receptor binding, NIH-3T3-GF6 cells, [3H]ketanserin
T6 construct: expressed in transfected cells; host or cells: NIH-3T3-GF6 cells

D2 receptor [7] = biological target: T5, D2 receptor; assay: cell-based
[8] = biological target: T7, human norepinephrine transporter (hNET) (Homo sapiens, UniProt P23975); assay: cell-based; conditions: Table 6; read-out: Reuptake Inhibition [3H]NE IC50
male Swiss-Webster mice [9] = assay: Locomotor activity 8-hour time course/dose response study; conditions: for ED50: Mus musculus, ip, 8 h, read-out: ED50, dose producing 1/2 maximal stimulant activity (S, stimulation); for ME/CME, Maximal Effect/Cocaine Maximal Effect / mode of action / ID50, dose producing 1/2 maximal depressant activity (I, inhibition): Table 9, 8 hours; for mode of action: ligand alone study; for ID50, dose producing 1/2 maximal depressant activity (I, inhibition): mouse, IP
Procedure: as §1

D1 receptor = biological target: T8, D1 receptor (Homo sapiens, UniProt P21728); assay: D1 receptor binding, LHD1 cells, [3H]SCH 23,390
T8 construct: expressed in transfected cells; host or cells: LHD1 cells

male Swiss-Webster mice [10] = assay: Cocaine/compound interaction study on locomotor activity; type: in vivo, mouse; conditions: for Attenuation of cocaine-induced LMA: 20 mg/kg of cocaine; for AD50, dose attenuating cocaine-induced stimulation by 50%: Table 8, ligand-cocaine interaction study, 20 mg/kg cocaine IP
5-HT2C receptor = biological target: T9, 5-HT2C receptor (Rattus norvegicus, UniProt P08909); assay: 5-HT2C receptor binding, NIH-3T3-P cells, [3H]mesulergine
T9 construct: expressed in transfected cells; host or cells: NIH-3T3-P cells
T9 sequence (P08909 33-460): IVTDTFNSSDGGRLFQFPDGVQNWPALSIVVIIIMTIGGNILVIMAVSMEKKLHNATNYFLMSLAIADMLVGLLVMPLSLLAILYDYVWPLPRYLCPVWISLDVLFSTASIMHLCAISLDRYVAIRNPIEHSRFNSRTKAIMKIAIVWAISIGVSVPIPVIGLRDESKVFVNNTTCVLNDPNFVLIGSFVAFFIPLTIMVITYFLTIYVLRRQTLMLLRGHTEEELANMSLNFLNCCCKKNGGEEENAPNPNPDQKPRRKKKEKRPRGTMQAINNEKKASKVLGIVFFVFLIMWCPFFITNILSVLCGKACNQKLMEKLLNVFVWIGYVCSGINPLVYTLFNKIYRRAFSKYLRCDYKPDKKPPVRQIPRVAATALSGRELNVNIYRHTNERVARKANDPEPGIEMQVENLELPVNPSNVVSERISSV

[11] = biological target: T2, human dopamine transporter (hDAT); assay: biochemical; type: binding
D3 receptor [12] = biological target: T3, D3 receptor; assay: D3 receptor binding, CHOp- cells, [3H]YM-09151-2
[13] = biological target: T7, human norepinephrine transporter (hNET); assay: biochemical; conditions: Table 5; [125I]RTI-55; oxalate salts; read-out: NET binding affinity Ki

T3 sequence (P35462 whole entry): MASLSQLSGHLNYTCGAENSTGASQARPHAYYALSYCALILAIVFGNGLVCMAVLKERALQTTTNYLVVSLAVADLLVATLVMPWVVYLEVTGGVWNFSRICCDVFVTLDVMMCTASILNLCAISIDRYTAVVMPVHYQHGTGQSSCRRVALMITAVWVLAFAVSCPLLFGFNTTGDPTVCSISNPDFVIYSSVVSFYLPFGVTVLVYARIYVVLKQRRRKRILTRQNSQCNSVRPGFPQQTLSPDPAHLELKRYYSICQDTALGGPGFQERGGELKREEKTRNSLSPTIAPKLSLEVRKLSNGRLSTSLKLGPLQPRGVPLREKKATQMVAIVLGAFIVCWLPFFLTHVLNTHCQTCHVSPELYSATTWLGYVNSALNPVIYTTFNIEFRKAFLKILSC
T2 sequence (Q01959 whole entry): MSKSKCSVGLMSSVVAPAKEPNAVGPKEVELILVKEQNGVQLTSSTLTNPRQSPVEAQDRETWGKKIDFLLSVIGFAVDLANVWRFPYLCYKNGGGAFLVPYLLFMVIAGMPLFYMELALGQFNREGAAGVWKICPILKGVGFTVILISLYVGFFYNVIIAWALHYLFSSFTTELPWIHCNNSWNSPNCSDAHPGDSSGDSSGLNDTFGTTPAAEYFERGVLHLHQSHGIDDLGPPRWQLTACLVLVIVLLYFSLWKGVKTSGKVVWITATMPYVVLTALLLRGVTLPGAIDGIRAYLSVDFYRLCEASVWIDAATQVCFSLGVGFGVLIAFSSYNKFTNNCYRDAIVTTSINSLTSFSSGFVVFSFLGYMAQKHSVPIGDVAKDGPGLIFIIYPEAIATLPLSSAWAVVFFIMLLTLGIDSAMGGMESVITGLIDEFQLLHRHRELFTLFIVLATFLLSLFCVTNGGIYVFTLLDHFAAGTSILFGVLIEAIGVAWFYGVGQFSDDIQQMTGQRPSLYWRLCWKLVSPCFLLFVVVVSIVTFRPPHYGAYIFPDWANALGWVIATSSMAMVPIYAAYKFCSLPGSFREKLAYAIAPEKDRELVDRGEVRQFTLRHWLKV
T7 sequence (P23975 whole entry): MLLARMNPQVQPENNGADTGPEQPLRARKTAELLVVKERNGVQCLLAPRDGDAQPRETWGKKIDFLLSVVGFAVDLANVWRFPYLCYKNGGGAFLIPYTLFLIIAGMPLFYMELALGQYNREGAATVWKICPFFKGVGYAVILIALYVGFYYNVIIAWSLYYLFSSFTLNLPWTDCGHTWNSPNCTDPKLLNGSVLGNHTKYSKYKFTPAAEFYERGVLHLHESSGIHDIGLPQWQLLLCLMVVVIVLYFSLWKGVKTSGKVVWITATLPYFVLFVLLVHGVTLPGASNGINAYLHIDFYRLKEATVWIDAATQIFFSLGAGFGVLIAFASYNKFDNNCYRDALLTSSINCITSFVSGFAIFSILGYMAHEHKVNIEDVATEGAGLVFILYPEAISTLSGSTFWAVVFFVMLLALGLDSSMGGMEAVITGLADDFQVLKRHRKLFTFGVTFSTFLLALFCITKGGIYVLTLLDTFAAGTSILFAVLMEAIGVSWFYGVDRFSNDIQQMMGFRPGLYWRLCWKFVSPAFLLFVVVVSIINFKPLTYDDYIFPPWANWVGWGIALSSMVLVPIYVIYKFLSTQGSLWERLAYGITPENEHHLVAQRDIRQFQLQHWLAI
T5 sequence (P14416 whole entry): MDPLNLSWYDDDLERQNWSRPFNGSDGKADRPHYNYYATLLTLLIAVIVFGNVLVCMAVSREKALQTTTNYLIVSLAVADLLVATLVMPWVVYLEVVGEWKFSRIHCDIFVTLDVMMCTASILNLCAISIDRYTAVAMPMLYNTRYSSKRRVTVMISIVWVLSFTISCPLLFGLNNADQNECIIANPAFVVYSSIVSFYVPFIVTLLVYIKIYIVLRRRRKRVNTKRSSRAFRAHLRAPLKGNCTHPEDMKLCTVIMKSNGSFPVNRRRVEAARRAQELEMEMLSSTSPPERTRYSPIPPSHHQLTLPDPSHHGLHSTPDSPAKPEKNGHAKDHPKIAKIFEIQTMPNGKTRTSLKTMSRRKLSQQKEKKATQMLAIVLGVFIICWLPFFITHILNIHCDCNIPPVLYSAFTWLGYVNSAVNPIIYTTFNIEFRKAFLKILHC
T4 sequence (P31645 whole entry): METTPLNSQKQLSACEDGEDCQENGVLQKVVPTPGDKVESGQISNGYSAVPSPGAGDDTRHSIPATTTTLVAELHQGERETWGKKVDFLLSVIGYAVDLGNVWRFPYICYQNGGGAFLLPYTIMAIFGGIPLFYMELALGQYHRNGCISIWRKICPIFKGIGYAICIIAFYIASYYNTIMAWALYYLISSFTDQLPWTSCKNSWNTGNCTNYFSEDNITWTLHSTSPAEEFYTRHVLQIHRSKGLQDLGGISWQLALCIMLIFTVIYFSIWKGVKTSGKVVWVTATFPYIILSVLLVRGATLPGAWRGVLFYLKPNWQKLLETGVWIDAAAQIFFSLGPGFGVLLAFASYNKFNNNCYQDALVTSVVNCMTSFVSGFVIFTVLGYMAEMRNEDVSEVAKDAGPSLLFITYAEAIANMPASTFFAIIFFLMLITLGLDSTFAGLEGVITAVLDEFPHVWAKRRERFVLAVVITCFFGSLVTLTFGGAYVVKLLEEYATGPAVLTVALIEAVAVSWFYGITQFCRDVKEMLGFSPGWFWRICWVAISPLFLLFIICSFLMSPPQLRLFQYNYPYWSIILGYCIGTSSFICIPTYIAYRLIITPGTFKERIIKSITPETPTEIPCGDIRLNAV
T8 sequence (P21728 whole entry): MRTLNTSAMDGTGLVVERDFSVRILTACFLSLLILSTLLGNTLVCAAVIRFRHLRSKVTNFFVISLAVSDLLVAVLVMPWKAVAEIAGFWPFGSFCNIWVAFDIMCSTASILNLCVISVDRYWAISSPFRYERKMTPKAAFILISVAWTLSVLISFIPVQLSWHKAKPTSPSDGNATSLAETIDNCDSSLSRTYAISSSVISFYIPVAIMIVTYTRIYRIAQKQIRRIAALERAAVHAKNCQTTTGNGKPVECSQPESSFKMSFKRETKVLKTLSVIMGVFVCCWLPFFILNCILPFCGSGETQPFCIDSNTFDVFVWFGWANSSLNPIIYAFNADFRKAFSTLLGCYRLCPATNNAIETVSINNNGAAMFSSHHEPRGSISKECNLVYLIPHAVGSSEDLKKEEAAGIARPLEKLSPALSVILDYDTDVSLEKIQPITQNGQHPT
T6 sequence (P14842 whole entry): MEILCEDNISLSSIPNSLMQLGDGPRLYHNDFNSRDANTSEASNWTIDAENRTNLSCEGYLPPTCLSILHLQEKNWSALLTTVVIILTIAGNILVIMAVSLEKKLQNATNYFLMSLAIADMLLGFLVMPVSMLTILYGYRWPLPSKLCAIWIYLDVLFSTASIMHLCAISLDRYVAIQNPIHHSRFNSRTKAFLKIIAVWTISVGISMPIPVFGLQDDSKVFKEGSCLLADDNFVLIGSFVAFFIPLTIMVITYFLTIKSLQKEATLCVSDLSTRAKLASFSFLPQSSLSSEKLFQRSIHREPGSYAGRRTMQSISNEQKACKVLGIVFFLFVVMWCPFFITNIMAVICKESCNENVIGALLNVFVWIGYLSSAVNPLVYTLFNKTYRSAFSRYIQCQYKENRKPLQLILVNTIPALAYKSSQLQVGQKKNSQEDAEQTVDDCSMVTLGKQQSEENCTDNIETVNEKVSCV

Compound | Ki (5-HT1A receptor) | IC50 [1] | Discrimination Ratios (DR) [3H]DA reuptake/DAT binding [1] | IC50 (D3 receptor [2]) | IC50 [8] | ED50 (male Swiss-Webster mice [9]) | ME/CME, Maximal Effect/Cocaine Maximal Effect (male Swiss-Webster mice [9]) | mode of action (male Swiss-Webster mice [9]) | ID50, dose producing 1/2 maximal depressant activity (I, inhibition) (male Swiss-Webster mice [9]) | Attenuation of cocaine-induced LMA (male Swiss-Webster mice [10]) | AD50, dose attenuating cocaine-induced stimulation by 50% (male Swiss-Webster mice [10]) | Binding Ratios NET/DAT ([11]; Table 5) | Binding Ratios SERT/DAT ([11]; Table 5) | other results
Fc1ccc(C(OCCCCN2CCNC(c3ccccc3)C2)c2ccc(F)cc2)cc1 (stereo not drawn) [Compound 28, 2-Phenyl-4-[4-[bis(4-fluorophenyl)methoxy]butyl]piperazine] | 2250 ± 359 nM | 550 ± 140 nM | 144 and 144.4 | 629 nM | 290 ± 50 nM | 7.6 mg/kg | 0.30 | biphasic | 36.4/I^e,f mg/kg | Attenuation | 50.27 mg/kg | 49.9 | 19.6 | Ki ([3]; [125I]RTI-55, oxalate salts): 0.0746 ± 0.0058 µM; IC50 [4]: 0.7 ± 0.26 µM; ED50 (male Swiss-Webster mice [5]; Mus musculus, ip, 1 h, read-out: ED50, dose producing 1/2 maximal stimulant activity (S, stimulation)): 1.52 mg/kg; mode of action (male Swiss-Webster mice [5]; Table 8, ligand alone study): monophasic; ME/CME, Maximal Effect/Cocaine Maximal Effect (male Swiss-Webster mice [5]; Table 8, mouse locomotor activity): 0.30; effect on spontaneous LMA (male Swiss-Webster mice [5]; mouse, compound alone): significant increase; Ki (D2 receptor [6]; Table 7, CHOp- cells, [3H]YM-09151-2, read-out: D2 Affinity Ki): 715 ± 404 nM; Ki (5-HT2A receptor; Table 7, rat receptors, NIH-3T3-GF6 cells, [3H]ketanserin, read-out: 5-HT2A Affinity Ki): 1490 ± 352 nM; IC50 (D2 receptor [7]; read-out: D2 Antagonist activity IC50): 164 nM; Ki (D1 receptor; Table 7, LHD1 cells, [3H]SCH 23,390, read-out: D1 Affinity Ki): 6150 ± 541 nM; Ki (5-HT2C receptor; Table 7, rat receptors, [3H]mesulergine, read-out: 5-HT2C Affinity Ki): 6700 ± 437 nM; Ki ([11]; Table 5, [125I]RTI-55, oxalate salts, read-out: DAT binding affinity Ki): 3.81 ± 0.84 nM; Ki (D3 receptor [12]; Table 7, CHOp- cells, [3H]YM-09151-2, read-out: D3 Affinity Ki): 677 ± 262 nM
Fc1ccc(C(OCCCCN2CCN(c3ccccn3)CC2)c2ccc(F)cc2)cc1 [Compound 39, 1-[4-[Bis(4-fluorophenyl)methoxy]butyl]-4-pyridin-2-ylpiperazine] | 53.5 ± 8.62 nM | 386 ± 55 nM | 46 | 955 nM | 2230 ± 710 nM | 38 mg/kg | >0.35 | biphasic | 60.3/I^e,i mg/kg | Attenuation | 62.1 mg/kg | 12.3 | >1190 | binding for 5-HT1A (5-HT1A receptor; Table 7): moderate binding; Ki ([3]; bound given in μM): > 10 µM; Ki [13]: 103 ± 37 nM; IC50 ([4]; bound given in μM): > 10 µM; ED50, dose producing 1/2 maximal stimulant activity (S, stimulation) (male Swiss-Webster mice [5]; Table 8, mouse, IP, ligand alone, 1-h session): no activity; Ki (D2 receptor [6]): 282 ± 67.7 nM; Ki (5-HT2A receptor): 498 ± 47.9 nM; D2 functional activity, marked agonist (footnote d) (D2 receptor [7]; Table 7, CHOp-D2 cells, [3H]thymidine incorporation, agonist): 196 ± 62.8^d nM; Ki (D1 receptor): 597 ± 19.4 nM; Ki (5-HT2C receptor): 3450 ± 1080 nM; Ki [11]: 8.4 ± 4 nM; Ki (D3 receptor [12]): 453 ± 163 nM
